Among the data in patent US20260234150A1, “COMPOUND FOR INHIBITING NLRP3, PREPARATION METHOD, AND USE” (DOVETREE MEDICINES UNUS, INC., priority 2023, published 2026) are IC50 values, retold here.

Bounds are passed on as bounds.

T1 sequence (Q96P20 134-1036 limits assumed): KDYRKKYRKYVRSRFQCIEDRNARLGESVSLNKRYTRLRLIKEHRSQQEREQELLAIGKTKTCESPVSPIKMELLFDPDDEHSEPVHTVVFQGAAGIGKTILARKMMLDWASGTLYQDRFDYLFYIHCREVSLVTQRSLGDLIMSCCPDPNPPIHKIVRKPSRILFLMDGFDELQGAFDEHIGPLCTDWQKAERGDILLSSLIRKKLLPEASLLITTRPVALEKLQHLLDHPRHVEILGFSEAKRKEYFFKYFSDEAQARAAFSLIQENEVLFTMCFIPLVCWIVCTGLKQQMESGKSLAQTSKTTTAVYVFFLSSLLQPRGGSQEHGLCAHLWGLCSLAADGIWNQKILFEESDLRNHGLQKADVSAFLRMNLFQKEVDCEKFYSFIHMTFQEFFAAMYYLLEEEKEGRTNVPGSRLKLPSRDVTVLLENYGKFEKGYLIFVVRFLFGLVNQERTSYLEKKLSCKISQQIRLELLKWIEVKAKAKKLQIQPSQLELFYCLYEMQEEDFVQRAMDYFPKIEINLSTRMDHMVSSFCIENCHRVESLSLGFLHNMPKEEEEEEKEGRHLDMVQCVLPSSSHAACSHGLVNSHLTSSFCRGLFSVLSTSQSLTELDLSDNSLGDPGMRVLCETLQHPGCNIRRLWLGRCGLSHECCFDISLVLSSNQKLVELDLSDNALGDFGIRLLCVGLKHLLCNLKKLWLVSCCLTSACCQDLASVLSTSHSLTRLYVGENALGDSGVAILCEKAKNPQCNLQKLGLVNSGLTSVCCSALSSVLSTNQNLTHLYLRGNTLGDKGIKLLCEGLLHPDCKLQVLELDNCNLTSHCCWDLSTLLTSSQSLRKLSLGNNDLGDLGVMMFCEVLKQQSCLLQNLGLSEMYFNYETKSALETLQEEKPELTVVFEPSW

This experiment addresses T1, His6-Flag-TEV-NLRP3 (134-1036) (Homo sapiens, UniProt Q96P20).
T1 construct: fused on or other part: N-terminal His6 tag, Flag tag and TEV cleavage site
The experiment is described as follows: NLRP3 fluorescence polarization (FP) binding assay, competition with probe NP3-301. The settings on record: competition with NP3-301 for binding to NLRP3 (134-1036), 30 nM protein. Here is the method: This experiment uses fluorescence polarization technology to detect and evaluate the binding assay.
The fluorescent probe used in this assay is the compound NP3-301 in the Journal of Molecular Biology (2021) 433, 167309, which was synthesized with reference to this literature.
His6-Flag-TEV-NLRP3 (134-1036) protein (SEQ NO. 1) was purchased from Kaihuiruizhi Biotech (Shanghai) Co., Ltd. (ChemPartner), and was customed for expression.
Prepare 1× assay buffer: 50 mM Hepes, pH 7.4, 150 mM NaCl, 2.5 mM MgCl2, 0.005% Tween-20, 1 mM TCEP, 100 μM ATP.
First, 2.5 μL of 4× compound solution was added to a black shallow 384-well plate (Greiner, 784076), the shallow well plate was sealed, and centrifuged at 1000 rpm for 1 min; then 2× NLPR3 protein solution (final concentration of 30 nM) was added, the shallow well plate was sealed, centrifuged at 1000 rpm for 1 min, and incubated at room temperature for 60 min. Finally, 2.5 μL of 4× NP3-301 (final concentration of 0.5 nM) was added, the shallow well plate was sealed, centrifuged at 1000 rpm for 1 min, and incubated at room temperature for 30 min. Envision was used to read the fluorescence polarization values of λex=485+20 nm and kem=535+25 nm. GraphPad Prism 9.5.0 was used to analyze the data, and the IC50 value of the competition between the compound and NP3-301 for binding to His6-Flag-TEV-NLRP3 (134-1036) was fitted by four-parameter logistic. The compounds of the present disclosure have good NLRP3 binding activity, and the test results of some representative compounds are shown in Table 1.
(In fluorescence polarisation assays a small probe gives low polarisation when free and higher when bound to something large.)
For `Cc1cc(C(F)(F)F)cc(O)c1-c1ccc2[nH]c(N)nc2n1` [Compound 1], the IC50 – broadly, the concentration at which inhibition is half-maximal – was in the range of 100 to 500 nM.
Then `Cc1cc(C(F)(F)F)cc(O)c1-c1ccc2[nH]c(CC(=O)O)nc2n1` [Compound 4], with 500 to 1000 nM; and `Cc1cc(C(F)(F)F)cc(O)c1-c1ccc2ccc(N)nc2n1` [Compound 7], with 100 to 500 nM.
Then `CCN1CCC[C@H](n2ccc3cc(-c4c(C)cc(C(F)(F)F)cc4O)nnc32)C1` [Compound 11-b], with 100 to 500 nM.
As for `Cc1cc(C(F)(F)F)cc(O)c1-c1ccc2nc(N)nn2n1` [Compound 13], the figure is 500 to 1000 nM; as for `Cc1cc(C(F)(F)F)cc(O)c1-c1ccc2oc(N[C@@H]3COCC[C@H]3O)nc2n1` [Compound 81], 100 to 500 nM.
Regarding `Cc1cc(C(F)(F)F)cc(O)c1-c1ccc2oc(NC3CC3)nc2n1` [Compound 82], the IC50 is at most 100 nM.
As for `Cc1cc(C(F)(F)F)cc(O)c1-c1cc2ccn(Cc3cc(C#N)ccn3)c2nn1` [Compound 121], the figure is over 1000 nM; as for `Cc1cc(C(F)(F)F)cc(O)c1-c1cc2ccn(C3CCS(=O)(=O)C3)c2nn1` (centres unmarked) [Compound 123], 500 to 1000 nM.
`Cc1cc(C(F)(F)F)cc(O)c1-c1cc2ccn(C3CCS(=O)(=O)CC3)c2nn1` [Compound 124] came in with an IC50 of 100 to 500 nM.
As for `Cc1cc(C(F)(F)F)cc(O)c1-c1cc2ccn(C3CS(=O)(=O)C3)c2nn1` [Compound 125], the figure is 100 to 500 nM.
Then `CC(=O)N1CCOC[C@H]1CNc1nc2nc(-c3c(C)cc(C)cc3O)ccc2o1` [Compound 254], with 100 to 500 nM; and `COc1cc(C)c(-c2ccc3oc(NC[C@@H]4COCCN4C(C)=O)nc3n2)c(O)c1` [Compound 255], with 500 to 1000 nM.
Then `Cc1cc(C(F)(F)F)cc(O)c1-c1ccc2oc(NC[C@@H]3COCCN3S(C)(=O)=O)nc2n1` [Compound 258], with at most 100 nM; and `CCS(=O)(=O)N1CCOC[C@H]1CNc1nc2nc(-c3c(C)cc(C(F)(F)F)cc3O)ccc2o1` [Compound 259], with at most 100 nM.
For `CC(=O)N1CC[C@@H](CNc2nc3nc(-c4c(C)cc(C(F)(F)F)cc4O)ccc3o2)C1` [Compound 271], the IC50 lay within 100 to 500 nM.
For the compound `CC(=O)N1C[C@@H](O)[C@H](Nc2nc3nc(-c4c(C)cc(C(F)(F)F)cc4O)ccc3o2)C1` [Compound 272], the IC50 was at most 100 nM.
Turning to `CC(=O)N1CC[C@H](Nc2nc3nc(-c4c(C)cc(C(F)(F)F)cc4O)ccc3o2)C1` [Compound 273], the IC50 was in the range of 100 to 500 nM.
In turn, `Cc1cc(C(F)(F)F)cc(O)c1-c1ccc2oc(N3CC4(COC4)C3)nc2n1` [Compound 357] displayed an IC50 of 100 to 500 nM.
With `CCN1CC2(CCN(c3nc4nc(-c5c(C)cc(C(F)(F)F)cc5O)ccc4o3)CC2)C1` [Compound 358], the IC50 lay within 100 to 500 nM.
Then `CC(=O)N1CC2(CCN(c3nc4nc(-c5c(C)cc(C(F)(F)F)cc5O)ccc4o3)CC2)C1` [Compound 359], with at most 100 nM; and `CC(=O)N1C[C@@H]2CN(c3nc4nc(-c5c(C)cc(C(F)(F)F)cc5O)ccc4o3)C[C@@H]2C1` [Compound 360], with at most 100 nM.
Turning to `Cc1cc(C(F)(F)F)cc(O)c1-c1ccc2oc(N3CCC4(CCOC4)C3)nc2n1` (centres unmarked) [Compound 361], the IC50 fell in the range of 100 to 500 nM.
With `Cc1cc(C(F)(F)F)cc(O)c1-c1ccc2oc(N3CCC4(CC3)COC4)nc2n1` [Compound 362], the IC50 is at most 100 nM.
Then `Cc1cc(C(F)(F)F)cc(O)c1-c1ccc2oc(N3CCC4(CCO4)CC3)nc2n1` [Compound 363], with at most 100 nM; and `CC(=O)N1CCC2(CCN(c3nc4nc(-c5c(C)cc(C(F)(F)F)cc5O)ccc4o3)C2)C1` (centres unmarked) [Compound 364], with at most 100 nM; and `CC(=O)N1CCC2(CC1)CN(c1nc3nc(-c4c(C)cc(C(F)(F)F)cc4O)ccc3o1)CCO2` [Compound 365], with 100 to 500 nM.
`CC(=O)N1CCC2(CC1)CCN(c1nc3nc(-c4c(C)cc(C(F)(F)F)cc4O)ccc3o1)CC2` [Compound 366]: the IC50 fell in the range of 100 to 500 nM.
Then `CCN1CCC2(CC1)CCN(c1nc3nc(-c4c(C)cc(C(F)(F)F)cc4O)ccc3o1)CC2` [Compound 367], with 100 to 500 nM; and `Cc1cc(C(F)(F)F)cc(O)c1-c1ccc2oc(N3CCC4(CCCCO4)CC3)nc2n1` [Compound 368], with at most 100 nM.
Compound `CC(=O)N1CCOC2(CCN(c3nc4nc(-c5c(C)cc(C(F)(F)F)cc5O)ccc4o3)CC2)C1` [Compound 369] returned an IC50 of 100 to 500 nM.
`CC(=O)N1CCCC2(CCN(c3nc4nc(-c5c(C)cc(C(F)(F)F)cc5O)ccc4o3)CC2)C1` [Compound 370] yielded an IC50 of 500 to 1000 nM.
Then `Cc1cc(C(F)(F)F)cc(O)c1-c1ccc2oc(N3CCO[C@@H](C)C3)nc2n1` [Compound 372], with at most 100 nM; and `Cc1cc(C(F)(F)F)cc(O)c1-c1ccc2oc(N3CCOC[C@@H]3C)nc2n1` [Compound 373], with 100 to 500 nM.
Then `Cc1cc(C(F)(F)F)cc(O)c1-c1ccc2oc(N3CCO[C@H](C)C3)nc2n1` [Compound 374], with at most 100 nM.
Then `Cc1cc(C)c(-c2ccc3oc(N4CCOCC4)nc3n2)c(O)c1` [Compound 375], with at most 100 nM.
`Cc1cc(C(F)(F)F)cc(O)c1-c1ccc2oc(N3CCCOCC3)nc2n1` [Compound 377] displayed an IC50 of at most 100 nM.
Then `Cc1cc(C(F)(F)F)cc(O)c1-c1ccc2oc(N3CC4CC(C3)O4)nc2n1` [Compound 378], with 100 to 500 nM; and `Cc1cc(C(F)(F)F)cc(O)c1-c1ccc2oc(N3C[C@H]4C[C@@H]3CO4)nc2n1` [Compound 379], with 100 to 500 nM.
Then `Cc1cc(C(F)(F)F)cc(O)c1-c1ccc2oc(N3C[C@@H]4C[C@H]3CO4)nc2n1` [Compound 380], with 100 to 500 nM.
Then `Cc1cc(C(F)(F)F)cc(O)c1-c1ccc2oc(C3CCCNC3)nc2n1` (centres unmarked) [Compound 382], with 100 to 500 nM; and `Cc1cc(C)c(-c2ccc3oc(N4CCS(=O)(=O)CC4)nc3n2)c(O)c1` [Compound 385], with 100 to 500 nM; and `Cc1cc(C(F)(F)F)cc(O)c1-c1ccc2oc(N3CCS(=O)(=O)c4ccccc43)nc2n1` [Compound 386], with at most 100 nM.
In turn, `CC(=O)N1CCN(c2nc3nc(-c4c(C)cc(C(F)(F)F)cc4O)ccc3o2)CC1` [Compound 389] gave an IC50 of at most 100 nM.
As for `CCS(=O)(=O)N1CCN(c2nc3nc(-c4c(C)cc(C)cc4O)ccc3o2)CC1` [Compound 391], the figure is at most 100 nM; as for `CCS(=O)(=O)N1CCN(c2nc3nc(-c4c(C)cc(C(F)(F)F)cc4O)ccc3o2)[C@@H](C)C1` [Compound 393], 100 to 500 nM; as for `Cc1cc(C(F)(F)F)cc(O)c1-c1ccc2oc(N3CC4CC(C3)N4S(C)(=O)=O)nc2n1` [Compound 395], at most 100 nM.
For `Cc1cc(C(F)(F)F)cc(O)c1-c1ccc2oc(N3CCN(C)C3=O)nc2n1` [Compound 396], the IC50 was at most 100 nM.
`CCN1C[C@H](Nc2nc3nc(-c4c(C)cc(C(F)(F)F)cc4O)ccc3o2)CC(F)(F)C1` [Compound 398] had an IC50 of at most 100 nM.
As for `Cc1cc(C(F)(F)F)cc(O)c1-c1ccc2oc(N[C@@H]3CCCN(C4COC4)C3)nc2n1` [Compound 401], the figure is at most 100 nM; as for `Cc1cc(C(F)(F)F)cc(O)c1-c1ccc2oc(N[C@@H]3CCCN(CC#N)C3)nc2n1` [Compound 402], at most 100 nM.
Then `Cc1cc(C(F)(F)F)cc(O)c1-c1ccc2oc(N[C@@H]3CCCN(CC(C)(C)O)C3)nc2n1` [Compound 403], with at most 100 nM; and `Cc1cc(C(F)(F)F)cc(O)c1-c1ccc2oc(N[C@@H]3CCCN(C(=O)C4CC4)C3)nc2n1` [Compound 405], with at most 100 nM.
As for `Cc1cc(C(F)(F)F)cc(O)c1-c1ccc2oc(N[C@@H]3CCCN(S(=O)(=O)C4CC4)C3)nc2n1` [Compound 406], the figure is at most 100 nM.
In the case of `CC(=O)N1CCC[C@@H](Nc2nc3nc(-c4c(C)cc(C(F)(F)F)cc4O)ccc3o2)C1` [Compound 407], the IC50 was at most 100 nM.
For `Cc1cc(C(F)(F)F)cc(O)c1-c1ccc2oc(N[C@@H]3CCCN(S(C)(=O)=O)C3)nc2n1` [Compound 408], the IC50 was at most 100 nM.
Compound `Cc1cc(C(F)(F)F)cc(O)c1-c1ccc2oc(NC3CCN(S(C)(=O)=O)CC3)nc2n1` [Compound 411] showed an IC50 of 100 to 500 nM.
As for `CC(=O)N1CCC(Nc2nc3nc(-c4c(C)cc(C(F)(F)F)cc4O)ccc3o2)CC1` [Compound 412], the figure is 100 to 500 nM.
Then `CC(=O)N1CCOC[C@H]1CNc1nc2ccc(-c3c(C)cc(C(F)(F)F)cc3O)nn2n1` [Compound 419], with 100 to 500 nM; and `Cc1cc(Cl)cc(O)c1-c1ccc2nc(N3CCOCC3)nn2n1` [Compound 420], with at most 100 nM; and `Cc1cc(C(F)(F)F)cc(O)c1-c1ccc2nc(NC[C@@H]3COCCN3S(C)(=O)=O)nn2n1` [Compound 421], with 500 to 1000 nM.
`CC(=O)N1CCOC[C@H]1CNc1nc2c(C)cc(-c3c(C)cc(C(F)(F)F)cc3O)nn2n1` [Compound 425] registered an IC50 of 100 to 500 nM.
